The NIST ThermoML archive (doi:10.1016/j.jct.2005.03.012)
± gives the expanded uncertainty stated by the source.

Experiment: excess molar enthalpy (molar enthalpy of mixing); xn = mol fraction of the nth substance listed
Details: Liquid

CO [methanol] + O
Details	excess molar enthalpy [kcal/mol]
355.11 K, 5000 kPa, x1 = 0.3	-0.0957 ± 0.00359
373.15 K, 5000 kPa, x1 = 0.1	-0.0386 ± 0.00194
373.15 K, 5000 kPa, x1 = 0.2	-0.053 ± 0.00239
373.15 K, 5000 kPa, x1 = 0.3	-0.0554 ± 0.00239
373.15 K, 5000 kPa, x1 = 0.4	-0.0527 ± 0.00237
373.15 K, 5000 kPa, x1 = 0.5	-0.0495 ± 0.00227
373.15 K, 5000 kPa, x1 = 0.6	-0.0465 ± 0.00217
373.15 K, 5000 kPa, x1 = 0.7	-0.0425 ± 0.00206
373.15 K, 5000 kPa, x1 = 0.8	-0.0361 ± 0.00186
373.15 K, 5000 kPa, x1 = 0.9	-0.0233 ± 0.00155
373.82 K, 5000 kPa, x1 = 0.9	-0.0227 ± 0.00153
374.46 K, 5000 kPa, x1 = 0.8	-0.0342 ± 0.00179
374.83 K, 5000 kPa, x1 = 0.7	-0.0394 ± 0.00196
375.03 K, 5000 kPa, x1 = 0.1	-0.0377 ± 0.00191
375.03 K, 5000 kPa, x1 = 0.2	-0.0491 ± 0.00227
375.03 K, 5000 kPa, x1 = 0.3	-0.0508 ± 0.00232
375.03 K, 5000 kPa, x1 = 0.4	-0.0479 ± 0.00222
375.03 K, 5000 kPa, x1 = 0.5	-0.045 ± 0.00213
375.03 K, 5000 kPa, x1 = 0.6	-0.0422 ± 0.00206
375.03 K, 5000 kPa, x1 = 0.7	-0.0388 ± 0.00194
375.03 K, 5000 kPa, x1 = 0.8	-0.0333 ± 0.00177
375.03 K, 5000 kPa, x1 = 0.9	-0.0214 ± 0.00143
375.05 K, 5000 kPa, x1 = 0.1	-0.0364 ± 0.00186
375.09 K, 5000 kPa, x1 = 0.6	-0.0424 ± 0.00206
375.26 K, 5000 kPa, x1 = 0.5	-0.0447 ± 0.00213
375.35 K, 5000 kPa, x1 = 0.9	-0.0212 ± 0.00141
375.45 K, 5000 kPa, x1 = 0.4	-0.0473 ± 0.0022
375.66 K, 5000 kPa, x1 = 0.3	-0.0498 ± 0.00229
375.68 K, 5000 kPa, x1 = 0.2	-0.0484 ± 0.00225
376.12 K, 5000 kPa, x1 = 0.8	-0.0318 ± 0.00172
376.69 K, 5000 kPa, x1 = 0.7	-0.0358 ± 0.00184
376.94 K, 5000 kPa, x1 = 0.6	-0.0382 ± 0.00194
376.98 K, 5000 kPa, x1 = 0.1	-0.034 ± 0.00179
377.07 K, 5000 kPa, x1 = 0.5	-0.0403 ± 0.00198
377.26 K, 5000 kPa, x1 = 0.4	-0.0427 ± 0.00206
377.41 K, 5000 kPa, x1 = 0.3	-0.0455 ± 0.00215
377.47 K, 5000 kPa, x1 = 0.2	-0.0447 ± 0.00213
420.87 K, 10000 kPa, x1 = 0.4	0.0499 ± 0.00229
420.97 K, 2000 kPa, x1 = 0.4	0.0467 ± 0.0022
420.98 K, 5000 kPa, x1 = 0.4	0.0483 ± 0.00225
420.98 K, 5000 kPa, x1 = 0.5	0.051 ± 0.00232
421.12 K, 10000 kPa, x1 = 0.6	0.0491 ± 0.00227
421.18 K, 5000 kPa, x1 = 0.6	0.048 ± 0.00222
421.19 K, 2000 kPa, x1 = 0.6	0.0457 ± 0.00215
421.39 K, 5000 kPa, x1 = 0.3	0.0384 ± 0.00194
421.51 K, 5000 kPa, x1 = 0.7	0.0404 ± 0.00198
421.69 K, 10000 kPa, x1 = 0.2	0.0282 ± 0.0016
421.8 K, 2000 kPa, x1 = 0.2	0.0262 ± 0.00155
421.84 K, 5000 kPa, x1 = 0.2	0.0269 ± 0.00158
421.92 K, 10000 kPa, x1 = 0.8	0.0294 ± 0.00165
421.97 K, 2000 kPa, x1 = 0.8	0.0259 ± 0.00155
421.98 K, 5000 kPa, x1 = 0.8	0.0283 ± 0.00163
